According to US7960369B2, “Receptor function regulator” (Takeda Pharmaceutical Company Limited, priority 2002, dated 2011):

Test system: mouse insulinoma MIN6 cell
Assay: Insulin secretagogue effect of free fatty acid in mouse insulinoma MIN6 cell (RIA)
Assay type: cell-based
Conditions: 300 μM-1000 μM free fatty acid-BSA (4:1), 11 mM glucose, 90 min (or 60 min)
Experimental: Unless otherwise specified, MIN6 cell was incubated in DMEM (high glucose, Invitrogen) containing 15% FCS (Trace Scientific Ltd.), 55 μM 2-mercaptoethanol, 100 U/ml penicillin, and 100 μg/ml streptomycin. Min6 cells were seeded in a 96 well plate at 10^5 cells per well, and incubated at 37° C. for 3 days in a CO2 incubator adjusted to 5% CO2 concentration. The medium was exchanged to RPMI1640 (glucose-free, Invitrogen) containing 10% FCS (Trace Scientific Ltd.), 5.5 mM glucose, 100 U/ml penicillin and 100 μg/ml streptomycin and the cells were further incubated for 24 hrs. The medium was aspirated, free fatty acid-bovine serum albumin (BSA) mixed solution (4:1, molar ratio) diluted with RPMI1640 (glucose-free, Invitrogen) containing 10% FCS (Trace Scientific Ltd.), 11 mM glucose, 100 U/ml penicillin, and 100 μg/ml streptomycin was added to the cells and reacted at 37° C. for 90 min. (or 60 min.) in a CO2 incubator adjusted to 5% CO2 concentration. The 96 well plate after reaction was centrifuged at 1500 rpm for 5 min. and the culture supernatant was recovered. The insulin amount secreted in this culture supernatant liquid was determined by radioimmunoassay (RIA) using a rat insulin RIA system (Amersham Pharmacia Biotech).

CCCCCCCCCCCCCCCC(=O)O [palmitic acid]
insulin secretion by MIN6 cell: promoted
